Data on four molecules can be found in patent US20160076098A1, “METHODS OF DIAGNOSING AND TREATING CHRONIC PAIN” (priority 2013, published 2016).

One data set concerns the target CYP3A4 (Homo sapiens, UniProt P08684). The conditions noted are these: known route of elimination; cited from earlier work.
The test system of another data set is MCP-1, IFNγ and IL-1β. The data set is described as follows: Inflammatory markers in CRPS patients following ketamine treatment. The format is in vivo, human. The conditions noted are these: p<0.05. The source says: Additional analysis comparing miRNA profiles from responders, non-responders and 20 control subjects enabled identification of additional miRNAs.

The subject of a further data set is β-endorphin. The data set is described as follows: β-endorphin levels in plasma of CRPS patients before and after ketamine therapy. Format: in vivo, human. As to conditions: after vs before ketamine therapy. How it is done:
FIG. 8 is a graph showing no significant difference in the basal (pre-treatment) plasma levels of β-endorphin between patients and healthy controls. […] Shown are β-endorphin levels in the plasma from CRPS patients (responders and non-responders to ketamine therapy) before treatment and healthy controls and in CRPS patients before and after ketamine therapy. Responders; n=11, non-responders; n=6 and control; n=5. Results represent mean±SEM. The statistical significance was calculated using one-way ANOVA*: p<0.05 relative to non-responders after treatment.
Analgesic pathway targets were selected for validation. Cross talk between analgesic and endocrinal systems is known (FIG. 6). Pro-opiomelanocortin (POMC) is a polypetide precursor of many peptide hormones in the hypothalamopitiutary axis, including Adrenocorticotrophic hormone (ACTH), Melanocyte stimulating hormone (MSH), and Beta-endorphin. Prohormone convertase cleaves POMC yielding important hormonal peptides ACTH, MSH, […] and β-endorphin. β-endorphin is an important member of the endogenous opioid system. Its release is important in modulation of mood, pain, inflammatory responses. Several studies have linked the expression of POMC and its daughter peptide β-endorphin to placebo effect. Non-Responders to ketamine therapy had increased expression of POMC mRNA in blood relative to the responders and healthy controls (FIG. 7). […]

The test system of data set [1] is miRNAs in blood of CRPS patients. As to conditions: blood of responders, after vs before ketamine treatment. The procedure: The experiments described herein were conducted in order to determine the utility of miRNAs as biomarkers for CRPS in both the effectiveness of a treatment and the severity and progression of individual cases. As presented herein, the changes in levels of 758 miRNAs were examined in blood of 19 CRPS patients before and after ketamine treatment, using Taqman low-density array cards.
Ketamine Treatment Ketamine treatment was given to the subjects by sub-anesthetic continuous intravenous administration. Infusion started at a rate of 10 mg/hr and increased in steps of 10 mg/hr at every 2 hours to a maximum of 40 mg/hr (see FIG. 4). Blood samples were collected from CRPS patients before and after ketamine treatment. miRNA Analysis
Total RNA was isolated from blood samples using mirVana kit (Applied Biosystems) and cDNA synthesis was performed. Levels of 758 miRNAs were analyzed by using a Taqman low-density array (TLDA) card.
A positive fold change indicates a higher expression of the miRNA in responders, while a negative fold change indicates a lower expression of the miRNA in responders.

Data set [2] concerns exosomes from human serum. The data set is described as follows: miRNA profiling of human serum-derived exosomes, patients with CRPS vs control subjects (TLDA cards). How it is done:
Exosome purification from cell culture media was performed as described (McDonald et al., 2013, J Visualized Exp 2013(76):e50294). Centrifugation was used to remove cell debris (500×g for 10 min); the supernatant was transferred and centrifuged (16,500×g for 20 min) Cell-free supernatants were filtered (0.22 μm; VWR, Radnor, Pa.) and exosomes were pelleted by ultracentrifugation (120,000×g for 70 min) The exosomal pellet was resuspended in buffer specific to downstream experiments and vortexed 2×15 seconds. For RNA purification, RNase inhibitors were added after the first centrifugation step at 1 U/ml (RNAsin Plus; Promega, Madison, Wis.) and at all subsequent steps at 1 U/μl. […]
TLDA microfluidic cards (Life Technologies) were used for miRNA profiling as previously described. […] For miRNAs profiled from exosomes collected from RAW 264.7 cells, significance was determined by applying a P value cutoff of 0.05 to the results of a paired-samples t test. For human exosomal miRNAs, significance was determined by applying the Benjamini-Hochberg false discovery rate correction to the results of a 2-tailed t test.
To determine whether exosomal miRNAs reflect the miRNA signature in whole blood of patients with CRPS, miRNAs in exosomes purified from the serum of 6 patients with CRPS and 6 healthy controls we analyzed (FIG. 38).

The subject of a further data set is RAW 264.7 cells. The data set is described as follows: Exosomal RNA sequencing (NGS) of naive and LPS-stimulated RAW 264.7 cells. The format is cell-based, mouse. As to conditions: exosomal transcript level after LPS stimulation of RAW 264.7 cells compared with exosomes from naive cells. How it is done: RAW 264.7 cells (ATCC) and RAW-Blue cells (Invivogen) were maintained in complete culture media (1×DMEM, 10% heat inactivated FBS). For exosome collection, RAW 264.7 cells (1×10^7) were plated in 150 mm dishes with complete culture media. At 24 hr, media was replaced with exosome-depleted media (1×DMEM, 10% heat-inactivated FBS depleted of exosomes by ultracentrifugation) with or without 1 μg/ml LPS (Sigma)) and incubated overnight. Media was collected in 50 ml tubes at 24 hr for exosome purification. Human THP1 macrophages were used in some experiments.
Exosome purification from cell culture media was performed as described (McDonald et al., 2013, J Visualized Exp 2013(76):e50294). […]
The SOLiD whole transcriptome analysis kit protocol with the fragmentation step omitted was used to generate a cDNA library for each sample. […] RNA concentration was measured using Nanodrop 1000 (NanoDrop Technologies, Wilmington, Del.). Total RNA from 3 independent exosome purifications was pooled to obtain 4 μg exosomal RNA per library (due to a limited amount of RNA in individual preparations), analyzed for integrity using the Agilent RNA 6000 Pico Kit (RNA integrity number between 1.6 and 2.1), and gel purified. […]

The mark [3] stands for this setting: negative = lower expression following treatment.

CYP3A4, sequence (P08684 whole entry): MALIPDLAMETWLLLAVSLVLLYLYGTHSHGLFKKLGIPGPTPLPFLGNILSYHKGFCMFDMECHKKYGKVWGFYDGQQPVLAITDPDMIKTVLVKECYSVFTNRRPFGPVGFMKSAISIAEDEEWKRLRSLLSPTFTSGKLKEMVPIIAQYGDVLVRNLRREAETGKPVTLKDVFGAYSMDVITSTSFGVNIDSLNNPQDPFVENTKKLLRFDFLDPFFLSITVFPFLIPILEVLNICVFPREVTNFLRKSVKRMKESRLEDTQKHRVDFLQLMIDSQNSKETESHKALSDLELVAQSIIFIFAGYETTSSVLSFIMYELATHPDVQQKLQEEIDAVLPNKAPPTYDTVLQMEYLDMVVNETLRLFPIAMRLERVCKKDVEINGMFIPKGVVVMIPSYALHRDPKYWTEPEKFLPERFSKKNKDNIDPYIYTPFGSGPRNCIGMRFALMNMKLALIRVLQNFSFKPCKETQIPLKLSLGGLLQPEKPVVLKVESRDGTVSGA

In the case of `CNC1(c2ccccc2Cl)CCCCC1=O` (stereo not drawn) [ketamine], the Metabolism result at CYP3A4 was “demethylated mostly by CYP3A4 followed by conjugation with glucuronic acid”. In the data set on MCP-1, IFNγ and IL-1β, the IFNγ level entry was “decreased significantly”, the IL-1β level result is reported as “decreased significantly” and the MCP-1 level result was “decreased significantly”. The β-endorphin plasma level entry in the data set on β-endorphin (non-responders) is reported as “but not the non-responders”. For the same molecule, the β-endorphin plasma level result in the data set on β-endorphin (responders) is reported as “induced an increase in β-endorphin”. Also, in data set [1] (setting [3]), the “Fold change RNU44.A” value is on record as −1.80, the “Fold change hsa-miR-337-3p” value is listed as −18.20, the “Fold change hsa-miR-597” value was −16.23 and the “Fold change hsa-miR-605” value is given as −36.08. Besides, in data set [1] (positive = higher expression following treatment), the “Fold change hsa-miR-650” value turned out to be 8.01.

As for “RNU48 (GAUGACCCCAGGUAACUCUGAGUGUGUCGCUGAUGCCAUCACCGCAGCGCUCUGACC; chemistry not fully specified; listed as Homo sapiens)”, in data set [2], the ddct turned out to be 2.147 and the fold-change is given as −4.429.

In the case of Gdf11, the PS/cpntrol ratio in the data set on RAW 264.7 cells turned out to be 4.82.

For the molecule Pgcp, the PS/cpntrol ratio in the data set on RAW 264.7 cells is on record as 2.94.
